Source: article PMC5488091, “Tellurite and Tellurate Reduction by the Aerobic Anoxygenic Phototroph Erythromonas ursincola, Strain KR99 Is Carried out by a Novel Membrane Associated Enzyme” (Microorganisms, 2017)
Where two headings read alike, the source gives them in different places. One block for each molecule: values may come before it.

What was measured:
[1] = system: T1, tellurite reductase (membrane associated tellurite/tellurate reductase); test: spectrophotometric tellurite reduction at […] nm; assay type: biochemical, Blastomonas ursincola; details: electron donor; co-substrate tellurite; pH 7.0, 28 °C
T1 construct: native enzyme purified from Triton X-100 solubilised membranes of KR99; 117 kDa heterodimer (62 + 55 kDa, 1:1); MS nearest match GroEL of Blastomonas sp

[2] = system: T1, tellurite reductase (membrane associated tellurite/tellurate reductase); assay type: biochemical, Blastomonas ursincola; details: co-substrate NADH (25 µL of 5 mM stock as printed), Tris HCl pH 7.0, 28 °C
[3] = molecular target: tellurite reductase 55 kDa subunit of Erythromonas ursincola, strain KR99 (Erythromonas ursincola, strain KR99 (endogenous)); test: SEC; endogenous enzyme co-purified from solubilised membranes; single band on 5% native PAGE; native mass by Superdex S-200 gel filtration in 20 mM Tris HCl pH 8.0; subunits by SDS-PAGE (12%) after boiling in 1% SDS with 2-mercaptoethanol

- Km [1]: 81.5 µM
Molecule: NC(=O)C1=CN([C@@H]2O[C@H](COP(=O)(O)OP(=O)(O)OC[C@H]3O[C@@H](n4cnc5c(N)ncnc54)[C@H](O)[C@@H]3O)[C@@H](O)[C@H]2O)C=CC1 [NADH]

Molecule: O=[Te](=O)(O)O [tellurate]
- Km ([2]; tellurate 0–5 mM): 1440 µM

Molecule: O=[Te](O)O [tellurite]
- Km ([2]; tellurite 0–13 mM): 3360 µM

- stoichiometry N [3]: 1
Molecule: tellurite reductase 62 kDa subunit of Erythromonas ursincola, strain KR99 (natural protein)
